The text below walks through data of patent publication US20230295197A1, “STAT5 and STAT6 Degraders and Uses Thereof” (REGENTS OF THE UNIVERSITY OF MICHICAN, priority 2022, published 2023).

The test concerns the target T1, STAT6 (Homo sapiens, UniProt P42226).
T1 construct: endogenous in cells; host or cells: MOLM-16, KU-812, SKNO1, MB231, L1236
T1 sequence (P42226 1-847): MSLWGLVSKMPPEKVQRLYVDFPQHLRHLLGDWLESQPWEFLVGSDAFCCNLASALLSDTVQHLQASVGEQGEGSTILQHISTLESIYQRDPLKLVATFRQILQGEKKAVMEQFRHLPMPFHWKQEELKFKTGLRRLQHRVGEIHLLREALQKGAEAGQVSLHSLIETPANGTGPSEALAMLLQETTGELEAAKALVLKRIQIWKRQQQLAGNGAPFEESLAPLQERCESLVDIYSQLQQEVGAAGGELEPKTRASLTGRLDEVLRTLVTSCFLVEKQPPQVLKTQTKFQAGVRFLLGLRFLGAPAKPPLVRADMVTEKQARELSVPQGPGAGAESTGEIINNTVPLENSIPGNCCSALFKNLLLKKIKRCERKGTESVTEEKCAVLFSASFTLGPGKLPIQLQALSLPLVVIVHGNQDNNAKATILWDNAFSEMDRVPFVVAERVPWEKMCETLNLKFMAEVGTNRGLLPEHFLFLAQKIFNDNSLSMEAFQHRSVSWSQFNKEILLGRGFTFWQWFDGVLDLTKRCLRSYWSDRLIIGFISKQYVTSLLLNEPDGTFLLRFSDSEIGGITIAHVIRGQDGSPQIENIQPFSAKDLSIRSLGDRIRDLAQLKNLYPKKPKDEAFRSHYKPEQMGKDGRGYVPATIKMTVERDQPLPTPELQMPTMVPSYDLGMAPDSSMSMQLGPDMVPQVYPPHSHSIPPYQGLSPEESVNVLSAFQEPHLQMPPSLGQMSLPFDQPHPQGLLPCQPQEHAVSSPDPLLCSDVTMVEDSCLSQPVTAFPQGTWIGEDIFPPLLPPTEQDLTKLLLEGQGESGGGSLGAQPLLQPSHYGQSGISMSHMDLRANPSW
Briefly: Immunoblotting (Western blot) analysis of STAT6 degradation efficiency of degraders in treated cells. It is filed as cell-based. The method in brief: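 Degradation read by quantitative near-infrared Western blot: equal protein loads (20-40 μg) from compound-treated versus untreated cells, probed overnight at 4° C. for STAT5 or STAT6 with GAPDH reference. Compound concentrations and exposure times as indicated; cells grown in medium with 10% FBS at 37° C.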
For orientation: A western blot detects proteins with antibodies after separation by electrophoresis.

The mark [1] stands for this setting: MOLM-16 cells, class symbols, read-out: DC50 S6 MOLM-16.
Setting [2] is: L1236 cells, read-out: DC50 S6 L1236.

Read-outs that look alike come from different tables or passages of the source. Where only a bound is given, the exact number is not on record here.

Take `CC(C)(C)[C@H](NC(=O)c1cc2cc(C(F)(F)P(=O)(O)O)ccc2s1)C(=O)N1CCN(C(=O)CC(=O)NCCC#Cc2ccc3c(c2)C(=O)N(C2CCC(=O)NC2=O)C3=O)C[C@H]1C(=O)N1CCC[C@H](c2ccccc2)C1` (stereo partly drawn) [Compound 524, ((2-(((2S)-1-((2S)-4-(3-((4-(2-(2,6-dioxopiperidin-3-yl)-1,3-dioxoisoindolin-5-yl)but-3-yn-1-yl)amino)-3-oxopropanoyl)-2-((R)-3-phenylpiperidine-1-carbonyl)piperazin-1-yl)-3,3-dimethyl-1-oxobutan-2-yl)carbamoyl)benzo[b]thiophen-5-yl)difluoromethyl)phosphonic acid]: the 50% degradation concentration (DC50) (usually the concentration at which degradation of the target reaches its halfway point) under setting [1] is above 10 µM.
Take `Cc1ncsc1-c1ccc([C@H](C)NC(=O)[C@@H]2C[C@@H](O)CN2C(=O)[C@@H](NC(=O)CCCNC(=O)CO[C@H]2C[C@@H](C(=O)N3CCC[C@H](c4ccccc4)C3)N(C(=O)[C@@H](NC(=O)c3cc4cc(C(F)(F)P(=O)(O)O)ccc4s3)C(C)(C)C)C2)C(C)(C)C)cc1` [Compound 436, (difluoro(2-(((S)-1-((2S,4S)-4-(2-((4-(((S)-1-((2S,4R)-4-hydroxy-2-(((S)-1-(4-(4-methylthiazol-5-yl)phenyl)ethyl)carbamoyl)pyrrolidin-1-yl)-3,3-dimethyl-1-oxobutan-2-yl)amino)-4-oxobutyl)amino)-2-oxoethoxy)-2-((R)-3-phenylpiperidine-1-carbonyl)pyrrolidin-1-yl)-3,3-dimethyl-1-oxobutan-2-yl)carbamoyl)benzo[b]thiophen-5-yl)methyl)phosphonic acid]: the DC50 under setting [2] is above 10 µM and the DC50 under setting [1] is above 10 µM.
For the molecule `CC(C)(C)[C@H](NC(=O)c1cc2cc(C(F)(F)P(=O)(O)O)ccc2s1)C(=O)N1C[C@@H](NC(=O)CCCCCC#Cc2ccc3c(c2)CN(C2CCC(=O)NC2=O)C3=O)C[C@H]1C(=O)N1CCO[C@H](c2ccccc2)C1` (stereo partly drawn) [Compound 566, ((2-(((2S)-1-((2S,4S)-4-(8-(2-(2,6-dioxopiperidin-3-yl)-1-oxoisoindolin-5-yl)oct-7-ynamido)-2-((R)-2-phenylmorpholine-4-carbonyl)pyrrolidin-1-yl)-3,3-dimethyl-1-oxobutan-2-yl)carbamoyl)benzo[b]thiophen-5-yl)difluoromethyl)phosphonic acid], the DC50 by setting is: under setting [2], above 10 µM; under setting [1], above 10 µM.
Consider `CC(C)(C)[C@H](NC(=O)c1cc2cc(C(F)(F)P(=O)(O)O)ccc2s1)C(=O)N1Cc2cc(OCC(=O)NCCCCCC#Cc3ccc4c(c3)C(=O)N(C3CCC(=O)NC3=O)C4=O)ccc2C[C@H]1C(=O)N1CCO[C@H](c2ccccc2)C1` (stereo partly drawn) [Compound 544, ((2-(((2S)-1-((3S)-7-(2-((7-(2-(2,6-dioxopiperidin-3-yl)-1,3-dioxoisoindolin-5-yl)hept-6-yn-1-yl)amino)-2-oxoethoxy)-3-((R)-2-phenylmorpholine-4-carbonyl)-3,4-dihydroisoquinolin-2(1H)-yl)-3,3-dimethyl-1-oxobutan-2-yl)carbamoyl)benzo[b]thiophen-5-yl)difluoromethyl)phosphonic acid], for which the DC50 under setting [1] was above 10 µM.
On to `Cc1ncsc1-c1ccc([C@H](CC(=O)NCCOCCOCCOCCC(=O)N[C@H]2C[C@@H](C(=O)N3CCO[C@H](c4ccccc4)C3)N(C(=O)[C@@H](NC(=O)c3cc4cc(C(F)(F)P(=O)(O)O)ccc4s3)C(C)(C)C)C2)NC(=O)[C@@H]2C[C@@H](O)CN2C(=O)[C@@H](NC(=O)C2(F)CC2)C(C)(C)C)cc1` [Compound 573, (difluoro(2-(((S)-1-((2S,4S)-4-((S)-1-((2S,4R)-1-((S)-2-(1-fluorocyclopropane-1-carboxamido)-3,3-dimethylbutanoyl)-4-hydroxypyrrolidin-2-yl)-3-(4-(4-methylthiazol-5-yl)phenyl)-1,5-dioxo-9,12,15-trioxa-2,6-diazaoctadecan-18-amido)-2-((R)-2-phenylmorpholine-4-carbonyl)pyrrolidin-1-yl)-3,3-dimethyl-1-oxobutan-2-yl)carbamoyl)benzo[b]thiophen-5-yl)methyl)phosphonic acid], for which the DC50 under setting [1] is above 10 µM.
As for `CC(C)(C)[C@H](NC(=O)c1cc2cc(C(F)(F)P(=O)(O)O)ccc2s1)C(=O)N1CCN(C(=O)CC(=O)NCCCCCCCCCC#Cc2cccc3c2C(=O)N(C2CCC(=O)NC2=O)C3=O)C[C@H]1C(=O)N1CCO[C@H](c2ccccc2)C1` (stereo partly drawn) [Compound 519, ((2-(((2S)-1-((2S)-4-(3-((11-(2-(2,6-dioxopiperidin-3-yl)-1,3-dioxoisoindolin-4-yl)undec-10-yn-1-yl)amino)-3-oxopropanoyl)-2-((R)-2-phenylmorpholine-4-carbonyl)piperazin-1-yl)-3,3-dimethyl-1-oxobutan-2-yl)carbamoyl)benzo[b]thiophen-5-yl)difluoromethyl)phosphonic acid], the DC50 under setting [1] is above 10 µM.
Regarding `CC(C)(C)[C@H](NC(=O)c1cc2cc(C(F)(F)P(=O)(O)O)ccc2s1)C(=O)N1C[C@@H](OCC(=O)NCCC#Cc2cccc3c2C(=O)N(C2CCC(=O)NC2=O)C3=O)C[C@H]1C(=O)N1CCC[C@H](c2ccccc2)C1` (stereo partly drawn) [Compound 495, ((2-(((2S)-1-((2S,4S)-4-(2-((4-(2-(2,6-dioxopiperidin-3-yl)-1,3-dioxoisoindolin-4-yl)but-3-yn-1-yl)amino)-2-oxoethoxy)-2-((R)-3-phenylpiperidine-1-carbonyl)pyrrolidin-1-yl)-3,3-dimethyl-1-oxobutan-2-yl)carbamoyl)benzo[b]thiophen-5-yl)difluoromethyl)phosphonic acid], the DC50 under setting [1] is above 10 µM.
Still for that read-out and setting: to `CC(C)(C)[C@H](NC(=O)c1cc2cc(C(F)(F)P(=O)(O)O)ccc2s1)C(=O)N1CCN(C(=O)CC(=O)NCCC#Cc2cccc3c2C(=O)N(C2CCC(=O)NC2=O)C3=O)C[C@H]1C(=O)N1CCC[C@H](c2ccccc2)C1` (stereo partly drawn) [Compound 523, ((2-(((2S)-1-((2S)-4-(3-((4-(2-(2,6-dioxopiperidin-3-yl)-1,3-dioxoisoindolin-4-yl)but-3-yn-1-yl)amino)-3-oxopropanoyl)-2-((R)-3-phenylpiperidine-1-carbonyl)piperazin-1-yl)-3,3-dimethyl-1-oxobutan-2-yl)carbamoyl)benzo[b]thiophen-5-yl)difluoromethyl)phosphonic acid] belongs above 10 µM.
On the same count and under the same terms, to `CC(C)(C)[C@H](NC(=O)c1cc2cc(C(F)(F)P(=O)(O)O)ccc2s1)C(=O)N1C[C@@H](OCC(=O)NCCCCCCCCC#Cc2ccc3c(c2)C(=O)N(C2CCC(=O)NC2=O)C3=O)C[C@H]1C(=O)N1CCO[C@H](c2ccccc2)C1` (stereo partly drawn) [Compound 490, ((2-(((2S)-1-((2S,4S)-4-(2-((10-(2-(2,6-dioxopiperidin-3-yl)-1,3-dioxoisoindolin-5-yl)dec-9-yn-1-yl)amino)-2-oxoethoxy)-2-((R)-2-phenylmorpholine-4-carbonyl)pyrrolidin-1-yl)-3,3-dimethyl-1-oxobutan-2-yl)carbamoyl)benzo[b]thiophen-5-yl)difluoromethyl)phosphonic acid] belongs above 10 µM; to `CC(C)(C)[C@H](NC(=O)C1=Cc2cc(C(F)(F)P(=O)(O)O)ccc2C1)C(=O)N1CSN(C(=O)CC(=O)NCC#Cc2cccc3c2C(=O)N(C2CCC(=O)NC2=O)C3=O)C[C@H]1C(=O)N1CCC[C@H](c2ccccc2)C1` (stereo partly drawn) [Compound 521, ((2-(((2S)-1-((4S)-2-(3-((3-(2-(2,6-dioxopiperidin-3-yl)-1,3-dioxoisoindolin-4-yl)prop-2-yn-1-yl)amino)-3-oxopropanoyl)-4-((R)-3-phenylpiperidine-1-carbonyl)-1,2,5-thiadiazinan-5-yl)-3,3-dimethyl-1-oxobutan-2-yl)carbamoyl)-1H-inden-5-yl)difluoromethyl)phosphonic acid], above 10 µM.
Same read-out and setting: to `CC(C)(C)[C@H](NC(=O)c1cc2cc(C(F)(F)P(=O)(O)O)ccc2s1)C(=O)N1C[C@@H](OCC(=O)NCCC#Cc2cccc3c2C(=O)N(C2CCC(=O)NC2=O)C3=O)C[C@H]1C(=O)N1CCO[C@H](c2ccccc2)C1` (stereo partly drawn) [Compound 481, ((2-(((2S)-1-((2S,4S)-4-(2-((4-(2-(2,6-dioxopiperidin-3-yl)-1,3-dioxoisoindolin-4-yl)but-3-yn-1-yl)amino)-2-oxoethoxy)-2-((R)-2-phenylmorpholine-4-carbonyl)pyrrolidin-1-yl)-3,3-dimethyl-1-oxobutan-2-yl)carbamoyl)benzo[b]thiophen-5-yl)difluoromethyl)phosphonic acid] belongs above 10 µM.
